Test results as given in patent publication US11896594B2, “Palatable antiparasitic formulations” (Zoetis Services LLC, priority 2018, dated 2024).

What was measured:
[1] = Moxidectin degradation in compressed tablets on accelerated stability (40° C./75% RH); format: physicochemical; details: for moxidectin degradation in the final tablets: 3 months 40°/75% RH; for moxidectin degradation: 40° C./75% RH; for moxidectin degradation in the finished product: 6 months accelerated stability
Description: For the moxidectin granulation, four different polymers were screened. Initially, the moxidectin-polymer ratio was about 1:160 (about 21.82 w/w % polymer of intra granular portion). The polymers included hypromellose [hydroxypropylmethyl cellulose (HPMC), Poloxamer 188 (P188), ethyl cellulose, and hydroxypropyl methyl cellulose acetyl succinate MG (HPMC AS MG). […] Use of the polymers in the moxidectin granulation process provided stability to the moxidectin. […] HPMC concentration was then assessed to determine the effect on moxidectin stability in compressed tablets. Concentrations of moxidectin:HPMC were 1:20, 1:80, 1:120, and 1:160 in the moxidectin granulation. These amounts accounted for about 2.72 w/w %, 10.91 w/w %, 16.36 w/w %, and 21.82 w/w % of the moxidectin granulation, respectively. […] Therefore, the 1:80 ratio of moxidectin to HPMC was used to prepare the moxidectin granulations. The amount of HPMC in the moxidectin granulation is about 6 to 18 w/w %; the preferred amount is about 10 to 12 w/w %; and the most preferred amount is about 11 w/w %. In the final composition, the amount of HPMC is about 2.0 w/w % to about 4.0 w/w % of the total tablet weight; and more preferably, about 2.0 to 3 w/w % of the total tablet weight; and even more preferably, about 2.0 to 2.5 w/w % of the total tablet weight. To further control moxidectin degradation, the stability enhancer, meglumine, and the antioxidant, BHT, were added to the moxidectin granulation. […] Use of the higher concentration (2.72 w/w %) of meglumine was used initially to better control the acid catalyzed degradants. However, at 6 months, there was a greater increase in base catalyzed degradation of moxidectin at this concentration of meglumine. […] Similarly, moxidectin degradation was assessed using varying amounts of BHT in the moxidectin granulation.

[2] = tested on: D. immitis; assay: Prevention of heartworm disease in dogs; format: in vivo; details: sensitive isolates; single dose; dogs

In the case of `CO/N=C1\C[C@]2(C[C@@H]3C[C@@H](C/C=C(\C)C[C@@H](C)/C=C/C=C4\CO[C@@H]5[C@H](O)C(C)=C[C@@H](C(=O)O3)[C@]45O)O2)O[C@H](/C(C)=C/C(C)C)[C@H]1C` [moxidectin], the “moxidectin degradation in the final tablets” value ([1]; BHT 0 w/w % in moxidectin granulation) is reported as “about 2.7%”, the “moxidectin degradation in the final tablets” value ([1]; BHT 0.095 w/w % in granulation (0.018 w/w % of tablet)) is reported as “about 1.4%” and the “moxidectin degradation in the final tablets” value ([1]; BHT 0.19 w/w % in granulation (0.037 w/w % of tablet)) is reported as “about 2.3%”. The “moxidectin degradation in the final tablets” value ([1]; BHT 0.38 w/w % in granulation (0.074 w/w % of tablet)) was “about 2.2%”, the moxidectin degradation ([1]; HPMC AS MG in moxidectin granulation (about 1:160), 3-months) was 12.1% and the moxidectin degradation ([1]; HPMC in moxidectin granulation (moxidectin-polymer about 1:160), 3-months) was 3.6%. For the same compound, the moxidectin degradation ([1]; P188 (Poloxamer 188) in moxidectin granulation (about 1:160), 3-months) was 5.2%, the total moxidectin degradation ([1]; compressed tablets manufactured with HPMC, 6-month accelerated stability) was 5-6% and the moxidectin degradation ([1]; ethyl cellulose in moxidectin granulation (about 1:160), 3-months) was 7.4%. The “moxidectin degradation in the final tablets” value ([1]; meglumine 0 w/w % in moxidectin granulation) was “about 2.4%”, the “moxidectin degradation in the final tablets” value ([1]; meglumine 1.36 w/w % in granulation (0.27 w/w % of tablet)) was “about 1.0%” and the “moxidectin degradation in the final tablets” value ([1]; meglumine 2.72 w/w % in granulation (0.54 w/w % of tablet)) was “about 0.7%”. The “moxidectin degradation in the finished product” value ([1]; moxidectin:HPMC 1:20 (2.72 w/w % of granulation)) was 5.04%, the “moxidectin degradation in the finished product” value ([1]; moxidectin:HPMC 1:80 (10.91 w/w % of granulation)) was 2.41% and the “moxidectin degradation in the finished product” value ([1]; moxidectin:HPMC 1:120 (16.36 w/w % of granulation)) was 2.26%. For the same compound, the “moxidectin degradation in the finished product” value ([1]; moxidectin:HPMC 1:160 (21.82 w/w % of granulation)) was 1.75%, the moxidectin degradation ([1]; without the use of a polymer, compressed tablets, 2-months) was 16.7% and the “efficacy against sensitive D. immitis isolates” value [2] was 100%.
